Source: patent US20250325469A1, “Inhibitors of atp synthase - cosmetic and therapeutic uses” (priority 2021, published 2025)

Key:
[1] = biological target: T1, F1F0 ATP hydrolysis (Bos taurus, UniProt P00829+P19483); details: cited from earlier work; for IC50: IF1 protein depleted SMPs from Bos taurus, pH 6.7, 37° C. [142]
T1 construct: IF1 protein depleted Sub-Mitochondrial Particles (SMPs) from Bos taurus; from tissue; host or cells: sub-mitochondrial particles from Bos taurus, endogenous IF1 removed

[2] = tested on: F1F0 ATP hydrolysis; details: [8, 109]; cited from earlier work
[3] = tested on: cancer cell lines of the NCI-60 assay; assay: NCI one-dose (10 μM) NCI-60 testing; type: cell-based; details: for anti-cancer activity: NCI-60 anti-cancer testing in vitro; for inhibition at 10 µM: 1-dose testing
Method: FIG. 1: Chiral supercritical fluid chromatography (SFC) was used to separate the shown racemate into its component R and S stereoisomers and two samples of opposite >97% enantiomeric excess (ee) was achieved: termed 8a and 8b respectively. 8a and 8b differ from 6a and 6b because they have methyl (Me, CH3), instead of hydrogen (H), upon their chiral carbon. 8a and 8b were independently tested in NCI one-dose (10 μM) testing: their results are shown in FIGS. (1B) and (1C) respectively.
(§1) (1E) 8a and 8b NCI one-dose (10 μM) test results side by side. % cancer growth inhibition >100 means there are less cancer cells at experiment end than beginning (i.e. cancer killing activity), =200=all cancer cells dead at experiment end. The observed pattern of 8a vs. 8b activity is hard to explain. One would expect one stereoisomer to have greater or equal activity than the other. […] Moreover, for one cancer cell line (NCI-H322M), 8a has no activity, yet 8b does.

[4] = rectal temperature and activity of mice administered compound; type: in vivo, mouse
Method: Hypoactivity of mouse, after being administered compound 6b, was because 6b caused the mouse's body temperature to drop towards its ambient temperature (22° C.). When ambient equals optimal body temperature (37° C.), 6b cannot reduce body temperature and cannot cause hypoactivity. In some embodiments, the hypoactivity/sedation aspect to a compound(s) of this disclosure is utilized for therapy. The intersection between drug dose and ambient temperature dictates how much the body temperature falls and thence the depth of the sedation. Larger drug dose, and/or lower ambient temperature, causes deeper sedation (e.g. useful for inducing anaesthesia, pre-anaesthesia, post-anaesthesia, hypoesthesia, sedation, coma, tranquilization, behavioural submission, muscle relaxation and/or treating/ameliorating/preventing/combating insomnia, fatal insomnia, sleep onset latency, delayed sleep phase disorder, exploding head syndrome, parasomnia, sleep-maintenance insomnia, sleep disorder etc.; repeated/continuous administration, e.g. repeated i.v. injections or continuous i.v. infusion, of a compound(s) of this disclosure can sedate a subject for an extended period of time). Smaller drug dose, and/or higher ambient temperature, causes lighter sedation (e.g. useful for anti-anxiety, anti-depression, hyperactivity etc.). At ambient≥optimal body temperature (37° C.), no sedation occurs. […]

[5] = tested on: cancer cell lines of the NCI-60 assay; assay: NCI-60 five-dose in vitro assay; type: cell-based; details: at 10 μM in 5-dose testing
Method: The present figure, herein, is a summary figure of that data (corresponding to FIG. 16K in the aforementioned Canadian application). Mean G150 for 8b and 8a is 3.09 and 2.85 μM respectively. […] In the 8a case, this GI50 is lower/better than 65% of 102 FDA approved cancer drugs in [112]. A salt of 8a. e.g. 8a HCl, is likely to have an even lower G150 in NCI five-dose testing.
The Pearson correlation coefficient between 8a activity in 1-dose (10 μM) and at 10 μM in 5-dose NCI-60 testing: R=0.4544 p=0.00034. The Pearson correlation coefficient between 8b activity in 1-dose (10 μM) and at 10 μM in 5-dose NCI-60 testing: R=0.6156, p<0.00001. […] So, this isn't unexpected. Not wishing to be bound by theory, in 5-dose NCI-60 testing, why 8a has a lower mean GI50 than 8b will now be explained. […] Except for the cancer cell lines that 8b exerted much more activity than 8a at in 1-dose testing, wherein the increased activity of 8a can't completely make up the deficit and overtake the activity of 8b.

[6] = tested on: NCI-H322M; assay: NCI one-dose (10 μM) testing, NCI-H322M; type: cell-based
Method: as §1

[7] = tested on: A498; assay: NCI one-dose (10 μM) testing, A498; type: cell-based
Method: as §1

[8] = tested on: MDA-MB-231/ATCC; assay: NCI one-dose (10 μM) testing, MDA-MB-231/ATCC; type: cell-based
Method: as §1

[9] = tested on: cells; details: each attached to the cargo sequence by introduced cysteines and a disulphide bond; cited from earlier work
[10] = read-out: Mean % cancer growth inhibition
[11] = read-out: Median % cancer growth inhibition

Molecule: 1-56: Bos taurus IF1 protein fragment, residues 1-56 (GSESGDNVRSSAGAVRDAGGAFGKREQAEEERYFRARAKEQLAALKKHHENEISHH; UniProt P01096 26-81, looked up, fragment) [Compound 1-56]
- IC50 [1]: 32 nM

Molecule: 1-60: Bos taurus IF1 protein fragment, residues 1-60 (GSESGDNVRSSAGAVRDAGGAFGKREQAEEERYFRARAKEQLAALKKHHENEISHHAKEI; UniProt P01096 26-85, looked up, fragment) [Compound 1-60]
- IC50 [1]: 19 nM

Molecule: 10-46: Bovine IF1 protein fragment, residues 10-46 (SSAGAVRDAGGAFGKREQAEEERYFRARAKEQLAALK; UniProt P01096 35-71, looked up, fragment) [Compound 10-46]
- inhibitory activity ([1]; bovine IF1 protein fragments, FIG. 10I legend [142, 144]): ten-fold less activity than 10-47

Molecule: 10-47: Bos taurus IF1 protein fragment, residues 10-47, mature numbering (SSAGAVRDAGGAFGKREQAEEERYFRARAKEQLAALKK; UniProt P01096 35-72, looked up, fragment) [Compound 10-47]
- IC50 [1]: 45 nM

Molecule: N#Cc1cccc(C(=O)/N=C(\Nc2ccc(Cl)cc2)N[C@@H](Cn2ccnc2)c2ccc(Cl)cc2Cl)c1 [Compound 6a]
- ability to inhibit/reduce F1F0 ATP hydrolysis [2]: cannot
- anti-cancer activity [3]: anti-cancer activity

Molecule: N#Cc1cccc(C(=O)/N=C(\Nc2ccc(Cl)cc2)N[C@H](Cn2ccnc2)c2ccc(Cl)cc2Cl)c1 [Compound 6b]
- ability to inhibit/reduce F1F0 ATP hydrolysis [2]: can potently inhibit/reduce F1F0 ATP hydrolysis
- anti-cancer activity [3]: anti-cancer activity
- rectal temperature ([4]; ambient room temperature 22° C., dose dependent): reduces its rectal temperature towards the ambient room temperature
- hypoactivity ([4]; ambient temperature 22° C.): hypoactivity

Molecule: [2H][C@@](Cn1ccnc1)(N/C(=N/C(=O)c1cccc(C#N)c1)Nc1ccc(Cl)cc1)c1ccc(Cl)cc1Cl [Compound 7a]
- anti-cancer activity [3]: less anti-cancer activity than 6a

Molecule: C[C@@](Cn1ccnc1)(N/C(=N/C(=O)c1cccc(C#N)c1)Nc1ccc(Cl)cc1)c1ccc(Cl)cc1Cl [Compound 8a]
- inhibition at 10 µM [5, 10]: 103%
- inhibition at 10 µM [5, 11]: 95%
- inhibition at 10 µM [3, 10]: 60.3%
- inhibition at 10 µM [3, 11]: 59.8%
- anti-cancer activity [6]: no activity
- Δ % cancer growth inhibition, 8a greater than 8b [7]: 38.57

Molecule: C[C@](Cn1ccnc1)(N/C(=N/C(=O)c1cccc(C#N)c1)Nc1ccc(Cl)cc1)c1ccc(Cl)cc1Cl [Compound 8b]
- inhibition at 10 µM [5, 10]: 99.4%
- inhibition at 10 µM [5, 11]: 93%
- inhibition at 10 µM [3, 10]: 76.5%
- inhibition at 10 µM [3, 11]: 77%
- anti-cancer activity [3]: greater anti-cancer activity than 8a
- anti-cancer activity [6]: does
- Δ % cancer growth inhibition, 8b greater than 8a [8]: 85.34%

Molecule: Bos taurus IF1 protein: Bos taurus IF1 protein recombinantly produced in E. Coli
- IC50 [1]: 34 nM

Molecule: RRRRRRR (Cell Penetrating Peptide (CPP) sequence) [Compound R7, heptamer of L-arginine residues, cell penetrating peptide]
- cellular penetration compared with Tat or penetratin [9]: twice as good
